Assay results taken from patent US10890588B2, “Compositions and methods for detecting cancer cells in a tissue sample” (ISI Life Sciences, Inc., priority 2016, dated 2021).

How the values were obtained:
Assay type in all cases: cell-based
[1] = tested on: SDOV3 cells (an ovarian cancer cell line); assay: Detection of ovarian cancer cells: absorption and intracellular deacylation to a fluorescent structure, fluorescence microscopy; conditions: folate-free medium (no FBS), washed with HBSS, 20× immersion objective
Protocol: Compound 24 and comparative compound A were evaluated for their ability to be absorbed by cancer cells and then, in the case of compound 24, deacylated by intracellular esterases so as to regenerate a fluorescent structure. Specifically, approximately 500,000 SDOV3 cells (an ovarian cancer cell line) were seeded into separate 35 mm culture dishes containing a folate-free growth medium (RPMI+10% FBS). The next day, the medium was replaced with a folate-free medium (no FBS). In one culture dish, the medium was supplemented with 25 micromolar of compound 24; and, in another culture dish, the medium was supplemented with 50 micromolar of comparative compound A. After incubation, the cells were washed with HBSS (Hank's balanced salt solution) to remove unbound compound. The cells were then imaged with a 20× immersion objective on a standard upright fluorescent microscope. […] FIG. 1 illustrates a picture showing the fluorescence generated. Note that only the cancer cells evidenced fluorescence and that the solution remained non-fluorescent. […] This evidences that that composition was not suitable for use in the methods described herein.

[2] = molecular target: T1, folate binding protein (folate receptor) on SKOV3 cells (Homo sapiens, UniProt P15328); assay: Folate competition: labeling of ovarian cancer cells via the folic acid receptor; conditions: 10 μM compound alone vs 10 μM + 1 mM folate (100×)
T1 construct: endogenous in cells; host or cells: SKOV3 cells
Protocol: This example establishes that compound 24 is specific for the folate receptor. Specifically, compound 24 was used in a folate free medium and in a medium using excess folate that competed with compound 24. The rationale is that in the presence of excess folate, compound 24 would have to compete for binding to the folate binding protein and therefore there would be less signal than when compound 24 was the sole source of folate.
To test this hypothesis, SKOV3 cells were incubated with 10 μM of compound 24 or with 10 μM of compound 24+1 mM folate (100×s). Cells were then washed and imaged as before.
All images were analyzed using exactly the same parameters. Mean intensity was measured from identical regions with in each image. […] These images establish that compound 24 binds to cells through the folate binding protein and not by some other route.

[3] = tested on: SKOV3 cells; assay: Dose response of fluorescence generated in SKOV3 cells; conditions: 1 hour; for Mean intensity: SKOV3 cells, RPMI + 0.25% BSA, image J
Protocol: This experiment establishes that compound 24 provides a dose response relative to the fluorescence generated. Specifically, SKOV3 cells were incubated with 10 μM, 25 μM, or 50 μM of compound 24 in RPMI supplemented with 0.25% BSA. Cells were incubated for 1 hour then washed with HBSS and imaged as before.
All images were analyzed using exactly the same parameters using the image J software suite. Mean intensity was measured from identical regions with in each image. […] While BSA was used as a supplement, acylated BSA may be more practical.

[4] = tested on: MCF7 cells, a breast cancer cell line that expresses folate binding protein; assay: Labeling of MCF7 cells (correlation between folic acid receptors and fluorescence intensity); conditions: MCF cells, 10 uM, one hour, folate-free RPMI, no FBS
Protocol: In this experiment, the procedures set forth above were repeated with the exception that SKOV3 cells were replaced with MCF7 cells—a breast cancer cell line that expresses folate binding protein albeit at a level lower than that of the SKOV3 cells. […] However, the fluorescent intensity generated by the MCF7 cells was less than that generated by SKOV3 cells.
Specifically, MCF cells were labeled at 10 uM with compound 24 for one hour in folate-free RPMI, no FBS. Cells were washed and imaged.

T1 sequence (P15328 25-234): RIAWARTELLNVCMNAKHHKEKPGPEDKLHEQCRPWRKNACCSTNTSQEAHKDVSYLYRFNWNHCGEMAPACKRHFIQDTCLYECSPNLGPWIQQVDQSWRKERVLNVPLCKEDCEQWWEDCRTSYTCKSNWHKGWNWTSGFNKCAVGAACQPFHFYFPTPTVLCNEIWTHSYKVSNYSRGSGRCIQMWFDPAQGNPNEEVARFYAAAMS

| Compound | fluorescent signal of cancer cells after incubation ([1]; 25 micromolar) | competition by excess folate for labeling ovarian cancer cells [2] | Mean intensity ([3]; 10 μM) | Mean intensity ([3]; 25 μM) | Mean intensity ([3]; 50 μM) | dose response in labeling cells ([3]; SKOV3 cells, 10, 25, 50 μM) | labeling of cells (fluorescence) [4] | fluorescent signal of cancer cells after incubation ([1]; 50 micromolar) |
| --- | --- | --- | --- | --- | --- | --- | --- | --- |
| O,O′-(5-(3-(4-((4-(4-(((2-amino-4-oxo-3,4-dihydropteridin-6-yl)methyl)amino)benzamido)-5-methoxy-5-oxopentanamido)methyl)phenyl)thioureido)-3-oxo-3H-spiro[isobenzofuran-1,9′-xanthene]-3′,6′-diyl) bis)(2-methoxyethyl) Disuccinate [compound 24] | clear, consistent and unambiguous | folate competes with compound 24 | 312.8 | 360.4 | 545.5 | clear dose response | labeling is faint | – |
| Nc1nc2ncc(CNc3ccc(C(=O)NC(CCC(=O)NCCCCCNC(=O)c4cccc(-c5c6ccc(=O)cc-6oc6cc(O)ccc56)c4C(=O)O)C(=O)O)cc3)nc2c(=O)[nH]1 (centres unmarked) [comparative compound A, reference compound] | – | – | – | – | – | – | – | showed a burst of fluorescence but immediately the fluorescence was bleached |
